# Results: the supplement of paper PMC4932681
# “And” between values parts separate entries of the source, which are not always exact repeats. Equal values may be shown once. Where a name gives a salt, the structure may show the parent alone.
# How the values were obtained:
# [1] = system: BT-474 Tam1; experiment: relative IC50 (midpoint of fitted logistic curve, plateau may be below 50% inhibition; CellTiter-Glo viability); higher = less potent; details: 4-OH-tamoxifen in medium 1 µM; 72 h
# Summary of the method: (§1)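 Breast cancer cell lines and their resistant derivatives were seeded into 384-well plates holding FO2Baq library drugs at five concentrations spanning a 10 000-fold range. Resistant lines were in medium with 1 μM of the selecting drug. Cells were incubated 72 h at 37 °C, and CellTiter-Glo viability was read on a PHERAstar and normalised to vehicle-only and positive controls. Drug sensitivity score, relative IC50 (curve midpoint) and top-dose inhibition came from logistic dose–response fits (Breeze pipeline).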
# [2] = system: ZR-75-1 Tam2; experiment: as above; details: 4-OH-tamoxifen in medium 1 µM; 72 h
# Summary of the method: as §1
# [3] = system: T-47D Tam2; experiment: as above; details: 4-OH-tamoxifen in medium 1 µM; 72 h
# Summary of the method: as §1
# [4] = system: BT-474 Tam2; experiment: as above; details: 4-OH-tamoxifen in medium 1 µM; 72 h
# Summary of the method: as §1
# [5] = system: T-47D; experiment: as above; details: 72 h
# Summary of the method: as §1
# [6] = system: BT-474; experiment: as above; details: 72 h
# Summary of the method: as §1
# [7] = system: ZR-75-1 Tam1; experiment: as above; details: 4-OH-tamoxifen in medium 1 µM; 72 h
# Summary of the method: as §1
# [8] = system: MCF-7 Tam1; experiment: as above; details: 4-OH-tamoxifen in medium 1 µM; 72 h
# Summary of the method: as §1
# [9] = system: MCF-7; experiment: as above; details: 72 h
# Summary of the method: as §1
# [10] = system: T-47D Tam1; experiment: as above; details: 4-OH-tamoxifen in medium 1 µM; 72 h
# Summary of the method: as §1
# [11] = system: ZR-75-1; experiment: as above; details: 72 h
# Summary of the method: as §1
# [12] = system: BT-474 Tam1; experiment: drug sensitivity score (DSS) (DSS (dimensionless)); higher = more sensitive; extreme values may be limits of the assay; details: 4-OH-tamoxifen in medium 1 µM; 72 h
# Summary of the method: as §1
# [13] = system: ZR-75-1 Tam2; experiment: as above; details: 4-OH-tamoxifen in medium 1 µM; 72 h
# Summary of the method: as §1
# [14] = system: T-47D Tam2; experiment: as above; details: 4-OH-tamoxifen in medium 1 µM; 72 h
# Summary of the method: as §1
# [15] = system: BT-474 Tam2; experiment: as above; details: 4-OH-tamoxifen in medium 1 µM; 72 h
# Summary of the method: as §1
# [16] = system: T-47D; experiment: as above; details: 72 h
# Summary of the method: as §1
# [17] = system: BT-474; experiment: as above; details: 72 h
# Summary of the method: as §1
# [18] = system: ZR-75-1 Tam1; experiment: as above; details: 4-OH-tamoxifen in medium 1 µM; 72 h
# Summary of the method: as §1
# [19] = system: MCF-7 Tam1; experiment: as above; details: 4-OH-tamoxifen in medium 1 µM; 72 h
# Summary of the method: as §1
# [20] = system: MCF-7; experiment: as above; details: 72 h
# Summary of the method: as §1
# [21] = system: T-47D Tam1; experiment: as above; details: 4-OH-tamoxifen in medium 1 µM; 72 h
# Summary of the method: as §1
# [22] = system: ZR-75-1; experiment: as above; details: 72 h
# Summary of the method: as §1
SMILES,relative IC50 [1],relative IC50 [2],relative IC50 [3],relative IC50 [4],relative IC50 ([5]; 4-OH-tamoxifen in medium 0 µM),relative IC50 ([5]; 4-OH-tamoxifen in medium 1 µM),relative IC50 ([6]; 4-OH-tamoxifen in medium 0 µM),relative IC50 ([6]; 4-OH-tamoxifen in medium 1 µM),relative IC50 [7],relative IC50 [8],relative IC50 ([9]; 4-OH-tamoxifen in medium 1 µM),relative IC50 [10],relative IC50 ([11]; 4-OH-tamoxifen in medium 0 µM),relative IC50 ([11]; 4-OH-tamoxifen in medium 1 µM),drug sensitivity score [12],drug sensitivity score [13],drug sensitivity score [14],drug sensitivity score [15],drug sensitivity score ([16]; 4-OH-tamoxifen in medium 0 µM),drug sensitivity score ([16]; 4-OH-tamoxifen in medium 1 µM),drug sensitivity score ([17]; 4-OH-tamoxifen in medium 0 µM),drug sensitivity score ([17]; 4-OH-tamoxifen in medium 1 µM),drug sensitivity score [18],drug sensitivity score [19],drug sensitivity score ([20]; 4-OH-tamoxifen in medium 0 µM),drug sensitivity score ([20]; 4-OH-tamoxifen in medium 1 µM),drug sensitivity score [21],drug sensitivity score ([22]; 4-OH-tamoxifen in medium 0 µM),drug sensitivity score ([22]; 4-OH-tamoxifen in medium 1 µM),relative IC50 ([9]; 4-OH-tamoxifen in medium 0 µM)
CCNC(=O)CCC/C=C\C[C@@H]1[C@@H](/C=C/[C@@H](O)CCc2ccccc2)[C@H](O)C[C@@H]1O [Bimatoprost],> 5500 nM,> 5500 nM,> 5500 nM,> 5500 nM,> 5500 nM,> 5500 nM,> 5500 nM,> 5500 nM,> 5500 nM,> 5500 nM,> 5500 nM,> 5500 nM,> 5500 nM,> 5500 nM,0,0,0,0,0,0.0302,0,0,0,0,0,0,0,0,0,
CS(=O)(=O)OCCCCOS(C)(=O)=O [Busulfan],> 100000 nM,> 100000 nM,> 100000 nM,> 100000 nM,> 100000 nM,> 100000 nM,> 100000 nM,,> 100000 nM,> 100000 nM,,> 100000 nM,> 100000 nM,> 100000 nM,0,0,0,0,0,0,0,0,0,0,0,0.0038,0,0,0,> 100000 nM
CN(C)/N=N/c1[nH]cnc1C(N)=O [Dacarbazine],> 10000 nM,> 10000 nM,> 10000 nM,> 10000 nM,> 10000 nM,> 10000 nM,> 10000 nM,> 10000 nM,> 10000 nM,> 10000 nM,,> 10000 nM,> 10000 nM,> 10000 nM,0,0,0,0,0,0,0,0,0,0,0,0.0214,0,0,0,> 10000 nM
Cn1c(CCCC(=O)O)nc2cc(N(CCCl)CCCl)ccc21 [Bendamustine (hydrochloride hydrate)],> 10000 nM,> 10000 nM,> 10000 nM,> 10000 nM,> 10000 nM,> 10000 nM,> 10000 nM,> 10000 nM,> 10000 nM,> 10000 nM,> 10000 nM,> 10000 nM,> 10000 nM,> 10000 nM,0,0,0,0,0,0,0,0,0,0,0.159,0,0,0,0,
Cc1c(CN2CCN(C(=O)[C@H](C)O)CC2)sc2c(N3CCOCC3)nc(-c3cnc(N)nc3)nc12 [GDC-0980],154 nM,160 nM,212 nM,303 nM,199 nM,390 nM,137 nM,170 nM,178 nM,226 nM,146 nM,117 nM,86.5 nM,145 nM,18.3,14.9,12.4,15.1,14.7,12.1,13.5,18.4,13.5,9.79,17.4,15.9,15.3,16.5,11.8,123 nM
CO[C@@H](C(=O)N1Cc2[nH]nc(NC(=O)c3ccc(N4CCN(C)CC4)cc3)c2C1)c1ccccc1,> 10000 nM,> 10000 nM,833 nM,> 10000 nM,,,> 10000 nM,> 10000 nM,> 10000 nM,> 10000 nM,> 10000 nM,1030 nM,> 10000 nM,> 10000 nM,0,0,3.95,0,2.94,1.25,0,0,0,0,0,0,4.24,0,0,> 10000 nM
Cc1cnc(NC(=O)Nc2cc(Br)c(C)cc2OC[C@@H]2CNCCO2)cn1,> 1000 nM,> 1000 nM,> 1000 nM,> 1000 nM,> 1000 nM,> 1000 nM,> 1000 nM,> 1000 nM,> 1000 nM,> 1000 nM,,> 1000 nM,> 1000 nM,> 1000 nM,0,0,0,0,0,0,0,0,0,0,2.37,0.181,0,0,0,
COc1cc(CCc2cc(NC(=O)c3ccc(N4CC(C)NC(C)C4)cc3)n[nH]2)cc(OC)c1 (stereo not drawn) [AZD4547],,> 1000 nM,> 1000 nM,> 1000 nM,> 1000 nM,> 1000 nM,> 1000 nM,> 1000 nM,> 1000 nM,> 1000 nM,> 1000 nM,> 1000 nM,> 1000 nM,> 1000 nM,0,0,0,0,0,0,0,0,0,0,0,0,0,0,0,> 1000 nM
C[C@]12C=CC(=O)C=C1CC[C@@H]1[C@@H]2[C@@H](O)C[C@@]2(C)[C@H]1CC[C@]2(O)C(=O)CO [Prednisolone],> 10000 nM,> 10000 nM,> 10000 nM,> 10000 nM,> 10000 nM,> 10000 nM,> 10000 nM,> 10000 nM,> 10000 nM,> 10000 nM,,> 10000 nM,> 10000 nM,> 10000 nM,0,0,0,0,0,0,0,0,0,0,0.324,0.407,0,0,0,
CNC(=O)c1cc(Oc2ccc(NC(=O)Nc3ccc(Cl)c(C(F)(F)F)c3)cc2)ccn1 [Sorafenib],,> 1000 nM,> 1000 nM,> 1000 nM,> 1000 nM,> 1000 nM,> 1000 nM,> 1000 nM,> 1000 nM,> 1000 nM,> 1000 nM,> 1000 nM,> 1000 nM,> 1000 nM,0.0104,0,0,0,0,0,0,0,0,0,0,0,0,0,0,> 1000 nM
C=CCn1c(=O)c2cnc(Nc3ccc(N4CCN(C)CC4)cc3)nc2n1-c1cccc(C(C)(C)O)n1 [MK-1775],1780 nM,> 10000 nM,1080 nM,857 nM,,,,1040 nM,> 10000 nM,> 10000 nM,553 nM,1120 nM,,,3.33,0,4.14,2.77,2.12,1.93,2.85,4.97,0,0,7.89,5.16,4.22,0.795,0.472,369 nM
"COc1cc2c(Oc3ccc4[nH]c(C)cc4c3F)ncnc2cc1OCCCN1CCCC1 [Cediranib (AZD2171, Recentin)]",,> 1000 nM,> 1000 nM,> 1000 nM,> 1000 nM,,> 1000 nM,304 nM,> 1000 nM,> 1000 nM,> 1000 nM,> 1000 nM,> 1000 nM,> 1000 nM,0.271,0,0,0,0,0.609,0,2.04,0,0,0.0072,0,0,0,0,
Cc1nc(Nc2ncc(C(=O)Nc3c(C)cccc3Cl)s2)cc(N2CCN(CCO)CC2)n1 [Dasatinib],130 nM and 374 nM,> 1000 nM,9.43 nM and 16.4 nM,> 1000 nM,> 1000 nM,41.6 nM,> 1000 nM,> 1000 nM,> 1000 nM,> 1000 nM,> 1000 nM,10.3 nM and 10.7 nM,> 1000 nM,> 1000 nM,2.9 and 1.26,0,8.11 and 4.97,,0,,0,0,0,0,,,8.54 and 7.6,0,0,> 1000 nM
Cn1cncc1[C@@](N)(c1ccc(Cl)cc1)c1ccc2c(c1)c(-c1cccc(Cl)c1)cc(=O)n2C [Tipifarnib  (Zarnestra)],1500 nM,808 nM,877 nM,1410 nM,,,817 nM,1650 nM,762 nM,1510 nM,329 nM,862 nM,606 nM,405 nM,7.78,6.76,4.67,7.37,3.25,0.489,4.27,6.99,7.03,3.82,11,12.6,6.21,6.34,7.52,277 nM
